In patent US5556744A, “Methods and compositions for diagnosing and treating certain HIV infected patients” (The Trustees of the University of Pennsylvania, priority 1994, dated 1996):

Legend:
[1] = system: maternal HIV+ sera (antibodies); assay: RIA / ELISA binding of maternal HIV+ sera to gp120 and gp41 peptides (Example 3); design: species or system human
Summary of the method: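 Maternal sera, diluted 1:50 and 1:500, were bound overnight at 4°C to peptides immobilized at 10 μg/ml (pH 9.6 carbonate) and blocked with 1% BSA. Read-out was ¹²⁵I-labelled anti-human IgG counts or HRP-TMB OD450. Signal with peptide minus without was expressed relative to seronegative serum.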

[2] = system: maternal sera (antibodies); assay: ELISA peptide-binding of maternal sera (Example 6); design: species or system human; conditions: for Number of Non-Transmitters which bound to peptide / Percent of Non-Transmitters which bound to peptide: N = 12; for Number of Transmitters which bound to peptide / Percent of Transmitters which bound to peptide: N = 4
Summary of the method: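 HIV-1 envelope peptides averaging 16 amino acids, covering external and transmembrane glycoprotein, were probed by ELISA. Third-trimester maternal sera, classed as transmitter or non-transmitter by child diagnosis, were each run on at least 40 peptides. Values give percent of sera binding a peptide.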

[3] = Serum No. 1, Non-Transmission Group
[4] = Serum No. 2, Non-Transmission Group
[5] = Serum No. 3, Non-Transmission Group
[6] = Serum No. 4, Transmission Group
[7] = Serum No. 5, Transmission Group
[8] = Serum No. 6, Non-Transmission Group
[9] = Serum No. 7, Non-Transmission Group
[10] = Serum No. 8, Non-Transmission Group
[11] = Serum No. 9, Non-Transmission Group
[12] = Serum No. 10, Transmission Group
[13] = Serum No. 11, Non-Transmission Group
[14] = Serum No. 12, Non-Transmission Group
[15] = Serum No. 13, Transmission Group
[16] = Serum No. 14, Transmission Group
[17] = Serum No. 15, Transmission Group
[18] = Serum No. 16, Non-Transmission Group
[19] = Serum No. 17, Non-Transmission Group
[20] = Serum No. 18, Non-Transmission Group
[21] = Serum No. 19, Transmission Group
[22] = Serum No. 20, Non-Transmission Group

Sequence	Binding of maternal HIV+ serum to peptide (sera/NHS ratio) [1, 3]	Binding of maternal HIV+ serum to peptide (sera/NHS ratio) [1, 4]	Binding of maternal HIV+ serum to peptide (sera/NHS ratio) [1, 5]	Binding of maternal HIV+ serum to peptide (sera/NHS ratio) [1, 6]	Binding of maternal HIV+ serum to peptide (sera/NHS ratio) [1, 7]	Binding of maternal HIV+ serum to peptide (sera/NHS ratio) [1, 8]	Binding of maternal HIV+ serum to peptide (sera/NHS ratio) [1, 9]	Binding of maternal HIV+ serum to peptide (sera/NHS ratio) [1, 10]	Binding of maternal HIV+ serum to peptide (sera/NHS ratio) [1, 11]	Binding of maternal HIV+ serum to peptide (sera/NHS ratio) [1, 12]	Binding of maternal HIV+ serum to peptide (sera/NHS ratio) [1, 13]	Binding of maternal HIV+ serum to peptide (sera/NHS ratio) [1, 14]	Binding of maternal HIV+ serum to peptide (sera/NHS ratio) [1, 15]	Binding of maternal HIV+ serum to peptide (sera/NHS ratio) [1, 16]	Binding of maternal HIV+ serum to peptide (sera/NHS ratio) [1, 17]	Binding of maternal HIV+ serum to peptide (sera/NHS ratio) [1, 18]	Binding of maternal HIV+ serum to peptide (sera/NHS ratio) [1, 19]	Binding of maternal HIV+ serum to peptide (sera/NHS ratio) [1, 20]	Binding of maternal HIV+ serum to peptide (sera/NHS ratio) [1, 21]	Binding of maternal HIV+ serum to peptide (sera/NHS ratio) [1, 22]	further results
EGGERDRDRSIRLVN [Peptide 129]	+ (which value is between 2 to 3)	- (specific OD450 or cpm of sera sample binding to peptide divided by the specific OD450 or cpm of NHS sample binding to peptide, which value is less than 2)	- (specific OD450 or cpm of sera sample binding to peptide divided by the specific OD450 or cpm of NHS sample binding to peptide, which value is less than 2)	- (specific OD450 or cpm of sera sample binding to peptide divided by the specific OD450 or cpm of NHS sample binding to peptide, which value is less than 2)	- (specific OD450 or cpm of sera sample binding to peptide divided by the specific OD450 or cpm of NHS sample binding to peptide, which value is less than 2)	- (specific OD450 or cpm of sera sample binding to peptide divided by the specific OD450 or cpm of NHS sample binding to peptide, which value is less than 2)	- (specific OD450 or cpm of sera sample binding to peptide divided by the specific OD450 or cpm of NHS sample binding to peptide, which value is less than 2)	- (specific OD450 or cpm of sera sample binding to peptide divided by the specific OD450 or cpm of NHS sample binding to peptide, which value is less than 2)	- (specific OD450 or cpm of sera sample binding to peptide divided by the specific OD450 or cpm of NHS sample binding to peptide, which value is less than 2)	- (specific OD450 or cpm of sera sample binding to peptide divided by the specific OD450 or cpm of NHS sample binding to peptide, which value is less than 2)	- (specific OD450 or cpm of sera sample binding to peptide divided by the specific OD450 or cpm of NHS sample binding to peptide, which value is less than 2)	- (specific OD450 or cpm of sera sample binding to peptide divided by the specific OD450 or cpm of NHS sample binding to peptide, which value is less than 2)	- (specific OD450 or cpm of sera sample binding to peptide divided by the specific OD450 or cpm of NHS sample binding to peptide, which value is less than 2)	- (specific OD450 or cpm of sera sample binding to peptide divided by the specific OD450 or cpm of NHS sample binding to peptide, which value is less than 2)	- (specific OD450 or cpm of sera sample binding to peptide divided by the specific OD450 or cpm of NHS sample binding to peptide, which value is less than 2)	- (specific OD450 or cpm of sera sample binding to peptide divided by the specific OD450 or cpm of NHS sample binding to peptide, which value is less than 2)	- (specific OD450 or cpm of sera sample binding to peptide divided by the specific OD450 or cpm of NHS sample binding to peptide, which value is less than 2)	- (specific OD450 or cpm of sera sample binding to peptide divided by the specific OD450 or cpm of NHS sample binding to peptide, which value is less than 2)	- (specific OD450 or cpm of sera sample binding to peptide divided by the specific OD450 or cpm of NHS sample binding to peptide, which value is less than 2)	- (specific OD450 or cpm of sera sample binding to peptide divided by the specific OD450 or cpm of NHS sample binding to peptide, which value is less than 2)	Number of Non-Transmitters which bound to peptide [2]: 0; Percent of Non-Transmitters which bound to peptide [2]: 0%; Number of Transmitters which bound to peptide [2]: 0; Percent of Transmitters which bound to peptide [2]: 0%
FSYHRLRDLLLIVTR [Peptide 132]	+ (which value is between 2 to 3)	- (specific OD450 or cpm of sera sample binding to peptide divided by the specific OD450 or cpm of NHS sample binding to peptide, which value is less than 2)	- (specific OD450 or cpm of sera sample binding to peptide divided by the specific OD450 or cpm of NHS sample binding to peptide, which value is less than 2)	- (specific OD450 or cpm of sera sample binding to peptide divided by the specific OD450 or cpm of NHS sample binding to peptide, which value is less than 2)	- (specific OD450 or cpm of sera sample binding to peptide divided by the specific OD450 or cpm of NHS sample binding to peptide, which value is less than 2)	- (specific OD450 or cpm of sera sample binding to peptide divided by the specific OD450 or cpm of NHS sample binding to peptide, which value is less than 2)	- (specific OD450 or cpm of sera sample binding to peptide divided by the specific OD450 or cpm of NHS sample binding to peptide, which value is less than 2)	- (specific OD450 or cpm of sera sample binding to peptide divided by the specific OD450 or cpm of NHS sample binding to peptide, which value is less than 2)	+ (which value is between 2 to 3)	- (specific OD450 or cpm of sera sample binding to peptide divided by the specific OD450 or cpm of NHS sample binding to peptide, which value is less than 2)	- (specific OD450 or cpm of sera sample binding to peptide divided by the specific OD450 or cpm of NHS sample binding to peptide, which value is less than 2)	- (specific OD450 or cpm of sera sample binding to peptide divided by the specific OD450 or cpm of NHS sample binding to peptide, which value is less than 2)	- (specific OD450 or cpm of sera sample binding to peptide divided by the specific OD450 or cpm of NHS sample binding to peptide, which value is less than 2)	- (specific OD450 or cpm of sera sample binding to peptide divided by the specific OD450 or cpm of NHS sample binding to peptide, which value is less than 2)	- (specific OD450 or cpm of sera sample binding to peptide divided by the specific OD450 or cpm of NHS sample binding to peptide, which value is less than 2)	- (specific OD450 or cpm of sera sample binding to peptide divided by the specific OD450 or cpm of NHS sample binding to peptide, which value is less than 2)	- (specific OD450 or cpm of sera sample binding to peptide divided by the specific OD450 or cpm of NHS sample binding to peptide, which value is less than 2)	- (specific OD450 or cpm of sera sample binding to peptide divided by the specific OD450 or cpm of NHS sample binding to peptide, which value is less than 2)	- (specific OD450 or cpm of sera sample binding to peptide divided by the specific OD450 or cpm of NHS sample binding to peptide, which value is less than 2)	- (specific OD450 or cpm of sera sample binding to peptide divided by the specific OD450 or cpm of NHS sample binding to peptide, which value is less than 2)	Number of Non-Transmitters which bound to peptide [2]: 1; Percent of Non-Transmitters which bound to peptide [2]: 83%; Number of Transmitters which bound to peptide [2]: 0; Percent of Transmitters which bound to peptide [2]: 0%
